Data published in patent publication US20020102280A1, “Solvent systems for pharmaceutical agents” (priority 2000, published 2002).
Where two headings read alike, the source gives them in different places. Blank lines part the entries; values can stand above or below the molecule they belong to.

Tests used:
[1] = free base form; cited from earlier work
physchem = experiment: physchem
Excerpt: Approximately 0.17 gm of Epikuron 200, 0.7 gm essential oil of sweet basil, 0.25 gm of water, and 0.25 gm of glycerol were mixed and the mixture centrifuged.
In this experiment, essential oils of ginger and sweet basil were combined to solubilize the bioactive compound ubiquinone (a coenzyme Q10) in a phospholipid-rich reversed liquid crystal.

[2] = cited from earlier work
[3] = oral, intramuscular and intraperitoneal routes; cited from earlier work
[4] = water-solubilized hydrochloride form; cited from earlier work
[5] = Solubilizing paclitaxel in essential oils
[6] = cited from earlier work; remark: listed apart in the source

Compound: N.[Cl][Pt][Cl].c1cscn1 [trans-[Pt(II)Cl2(NH3)(thiazole)]]
level solubilized in reversed cubic phase (physchem): about 2.4%

Compound: O=C1CN(/N=C/c2ccc(-c3ccc([N+](=O)[O-])cc3)o2)C(O)=N1 [Dantrolene sodium, dantrolene sodium]
solubility in water [2]: ~300 µg/mL
solubilization in reversed cubic phase (physchem): free of dantrolene crystals
dissolution in reversed cubic liquid crystalline phase (physchem; Experiment 10: 3 mg in Epikuron 200/ascorbyl palmitate/gentisic acid/aminocaproic acid/ethanolamine/water + oil of ginger): dissolved

Compound: C=CC(C)(O)CCC=C(C)C (stereo not drawn) [Linalool, linalool]
toxicity [3]: extremely low toxicity

Compound: CCCCN1CCCCC1C(=O)Nc1c(C)cccc1C.Cl (stereo not drawn) [bupivicaine hydrochloride]
therapeutic half life [4]: only a few hours

Compound: O=C1CN(/N=C/c2ccc(-c3ccc([N+](=O)[O-])cc3)o2)C(O)=N1 [Dantrolene, dantrolene]
solubility in simple phospholipid-water systems [6]: very low
solubility in water ([2]; listed as dantrolene): approximately 150 mg/L

Further lines, with some results ahead:

solubilization in liquid crystal (reversed cubic phase) (physchem): solubilized
Compound: CCCCN1CCCCC1C(=O)Nc1c(C)cccc1C (stereo not drawn) [bupivicaine]
KOW (octanol-water partition coefficient) [1]: approximately 1500

solubilization in reversed bicontinuous cubic phase (physchem): solubilized
solubilization in reversed cubic phase (physchem): fully solubilized
Compound: COC1=C(OC)C(=O)C(C/C=C(\C)CC/C=C(\C)CC/C=C(\C)CC/C=C(\C)CC/C=C(\C)CC/C=C(\C)CC/C=C(\C)CC/C=C(\C)CC/C=C(\C)CCC=C(C)C)=C(C)C1=O [Coenzyme Q10, ubiquinone]

Paclitaxel solubility (w/w, approx) ([5]; in oil of bay): ~16%
Paclitaxel solubility (w/w, approx) ([5]; in palmarosa oil): >10%
Paclitaxel solubility (w/w, approx) ([5]; in peppermint oil): >5%
Paclitaxel solubility (w/w, approx) ([5]; in sweet basil oil): ~7%
Paclitaxel solubility (w/w, approx) ([5]; in thyme oil): ~10%
solubility (physchem; oil or lipid): ≥ 5000 µg/mL
Compound: CC(=O)O[C@H]1C(=O)[C@@]2(C)[C@H]([C@H](OC(=O)c3ccccc3)[C@]3(O)C[C@H](OC(=O)[C@H](O)[C@@H](NC(=O)c4ccccc4)c4ccccc4)C(C)=C1C3(C)C)[C@]1(OC(C)=O)CO[C@@H]1C[C@@H]2O [Paclitaxel, paclitaxel]
